The target in one test is c-Cbl (Homo sapiens (Human), UniProt P22681). In words: C-Cbl LCK Ub TR-FRET assay (c-cbl Lck HTRF). Particulars: for (fold-selectivity): C-cbl Lck HTRF IC50 relative to Cbl-b Lck HTRF IC50. The format is biochemical. In outline:
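Detection reagents added, brief spin, 20 min RT. IC50 fit normalized to no-LCK (low) and DMSO (high) controls.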

For another test, the target named is Cbl-b (Homo sapiens (Human), UniProt Q13191). In words: Cbl-b LCK Ub TR-FRET assay (Cbl-b Lck HTRF). The format is biochemical. In outline:
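Biotin-Cbl-b preincubated with compound (10-point 3-fold series) 60 min, then His-LCK with 1 mM ATP (2× mixture) added for 90 min at room temperature. Ubiquitination detected by TR-FRET using HA-ubiquitin/UBE2D2 adduct, anti-HA-D2 and streptavidin-Eu; IC50 normalised to no-LCK and DMSO controls.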
On the technique in general: Time-resolved FRET reads energy transfer from a long-lived donor to a nearby acceptor.

c-Cbl, sequence (P22681 47-435): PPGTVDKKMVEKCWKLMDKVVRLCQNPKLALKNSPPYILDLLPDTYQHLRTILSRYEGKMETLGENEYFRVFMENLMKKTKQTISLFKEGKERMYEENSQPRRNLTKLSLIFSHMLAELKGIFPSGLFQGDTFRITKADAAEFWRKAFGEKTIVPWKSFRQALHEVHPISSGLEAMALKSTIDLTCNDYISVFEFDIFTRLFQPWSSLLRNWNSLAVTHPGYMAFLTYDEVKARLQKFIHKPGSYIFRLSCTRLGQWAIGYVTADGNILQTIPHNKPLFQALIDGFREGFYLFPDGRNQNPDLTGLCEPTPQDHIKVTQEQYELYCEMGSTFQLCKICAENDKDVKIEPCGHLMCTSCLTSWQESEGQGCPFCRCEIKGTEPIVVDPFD
Cbl-b, sequence (Q13191 40-426): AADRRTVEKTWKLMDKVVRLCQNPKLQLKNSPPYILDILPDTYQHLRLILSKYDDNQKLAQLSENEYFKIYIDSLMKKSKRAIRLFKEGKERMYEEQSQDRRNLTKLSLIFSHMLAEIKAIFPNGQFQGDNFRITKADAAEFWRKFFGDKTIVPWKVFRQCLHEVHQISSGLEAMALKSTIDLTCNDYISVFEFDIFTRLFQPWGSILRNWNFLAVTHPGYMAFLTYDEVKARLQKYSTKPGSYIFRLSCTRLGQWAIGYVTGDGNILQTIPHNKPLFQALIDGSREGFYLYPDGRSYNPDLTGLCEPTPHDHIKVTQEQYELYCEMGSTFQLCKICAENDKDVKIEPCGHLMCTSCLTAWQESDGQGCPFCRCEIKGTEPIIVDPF

What is called IC50 is the concentration needed to halve the response being measured. A higher IC50 goes with a need for much substance. With `Cn1cnnc1[C@H](F)[C@@](C)(F)c1cccc(N2Cc3c(cc(CN4CC(C)(F)C4)cc3C(F)(F)F)C2=O)c1` [Compound 33, 2-(3-((1 S,2S)-1,2-difluoro-1-(4-methyl-4H-1,2,4-triazol-3-yl)propan-2-yl)phenyl)-6-((3-fluoro-3-methylazetidin-1-yl)methyl)-4-(trifluoromethyl)isoindolin-1-one], on c-Cbl, the IC50 came to 1900 nM and the “(fold-selectivity)” value stood at 2.1x. On Cbl-b, this compound came in with an IC50 of 890 nM.
For `CN1CC2CC(C1)N2Cc1cc2c(c(C(F)(F)F)c1)CN(c1cccc(C3(Cc4nncn4C)CC(F)(F)C3)c1)C2=O` [Compound 412, 2-(3-(3,3-difluoro-1-((4-methyl-4H-1,2,4-triazol-3-yl)methyl)cyclobutyl)phenyl)-6-((3-methyl-3,6-diazabicyclo[3.1.1]heptan-6-yl)methyl)-4-(trifluoromethyl)isoindolin-1-one], in that order: 51 nM, “(1.1x)” and 50 nM.
The matching figures for `Cn1cnnc1CC1(c2cccc(N3Cc4c(cc(CN5CC[C@@H](CCl)C5)cc4C(F)(F)F)C3=O)c2)COC1` [Compound 101, (R)-6-((3-(chloromethyl)pyrrolidin-1-yl)methyl)-2-(3-(3-((4-methyl-4H-1,2,4-triazol-3-yl)methyl)oxetan-3-yl)phenyl)-4-(trifluoromethyl)isoindolin-1-one]: 23 nM, 1.2x and 18 nM.
The matching figures for `Cn1cnnc1[C@@H](F)C1(c2cccc(N3Cc4c(cc(CN5CCC5)cc4C(F)(F)F)C3=O)c2)COC1` [Compound 71, (S)-6-(azetidin-1-ylmethyl)-2-(3-(3-(fluoro(4-methyl-4H-1,2,4-triazol-3-yl)methyl)oxetan-3-yl)phenyl)-4-(trifluoromethyl)isoindolin-1-one]: 400 nM, 1.7x and 240 nM.
Regarding `C[C@@H](c1cc2c(c(C(F)(F)F)c1)CN(c1cccc(C3([C@@H](F)c4nncn4C)COC3)c1)C2=O)N1CC(C)(F)C1` [Compound 108, 2-(3-(3((R)-fluoro(4-methyl-4H-1,2,4-triazol-3-yl)methyl)oxetan-3-yl)phenyl)-6-((S)-1-(3-fluoro-3-methylazetidin-1-yl)ethyl)-4-(trifluoromethyl)isoindolin-1-one], on c-Cbl, the IC50 was found to be 160 nM and the “(fold-selectivity)” value is given as 2.0x. The compound further registered an IC50 against Cbl-b of 83 nM.
In the case of `Cn1cnnc1CC1(c2cccc(N3Cc4c(cc(CNC(C)(C)C)cc4C(F)(F)F)C3=O)c2)CC(F)(F)C1` [Compound 283, 6-((tert-butylamino)methyl)-2-(3-(3,3-difluoro-1-((4-methyl-4H-1,2,4-triazol-3-yl)methyl)cyclobutyl)phenyl)-4-(trifluoromethyl)isoindolin-1-one], at c-Cbl, it took 57 nM to reach half-maximal inhibition (IC50) and the “(fold-selectivity)” value is given as “(1.1x)”. On Cbl-b, the midpoint of inhibition, the IC50, lay at 53 nM.
For `CC[C@H]1CC[C@@H](c2cc3c(c(C(F)(F)F)c2)CN(c2cccc(C4(Cc5nncn5C)CC(F)(F)C4)c2)C3=O)N1` [Compound 475, 2-(3-(3,3-difluoro-1-((4-methyl-4H-1,2,4-triazol-3-yl)methyl)cyclobutyl)phenyl)-6-((2S,5S)-5-ethylpyrrolidin-2-yl)-4-(trifluoromethyl)isoindolin-1-one], in that order: 69 nM, “(1.3x)” and 54 nM.
The matching figures for `Cn1cnnc1[C@H](F)C1(c2cccc(N3Cc4c(cc(CN5CCC[C@H](CO)C5)cc4C(F)(F)F)C3=O)c2)COC1` [Compound 143, 2-(3-(3-((R)-fluoro(4-methyl-4H-1,2,4-triazol-3-yl)methyl)oxetan-3-yl)phenyl)-6-(((S)-3-(hydroxymethyl)piperidin-1-yl)methyl)-4-(trifluoromethyl)isoindolin-1-one]: 27 nM, 0.92x and 29 nM.
The matching figures for `Cc1cccc2c1CN(c1cccc(C3([C@@H](F)c4nncn4C)COC3)c1)C2=O` [Compound 208, (R)-2-(3-(3-(fluoro(4-methyl-4H-1,2,4-triazol-3-yl)methyl)oxetan-3-yl)phenyl)-4-methylisoindolin-1-one]: 2100 nM, 1.5x and 1400 nM.
As for `CCn1cnnc1C(F)C1(c2cccc(N3Cc4c(cc(CN5CCN(C)C[C@@H]5C(C)C)cc4C(F)(F)F)C3=O)c2)CC(F)(F)C1` (stereo partly drawn) [Compound 485, 2-(3-(1-((4-ethyl-4H-1,2,4-triazol-3-yl)fluoromethyl)-3,3-difluorocyclobutyl)phenyl)-6-(((S)-2-isopropyl-4-methylpiperazin-1-yl)methyl)-4-(trifluoromethyl) isoindolin-1-one], on c-Cbl, half-maximal inhibition (IC50) required 29 nM and the “(fold-selectivity)” value is “(0.92x)”. On Cbl-b, this compound returned an IC50 of 31 nM.
The matching figures for `Cn1cnnc1[C@@H](F)C1(c2cccc(N3Cc4c(cc(CN5CCC[C@@H]5CO)cc4C(F)(F)F)C3=O)c2)COC1` [Compound 148, 2-(3-(3-((S)-fluoro(4-methyl-4H-1,2,4-triazol-3-yl)methyl)oxetan-3-yl)phenyl)-6-(((R)-2-(hydroxymethyl)pyrrolidin-1-yl)methyl)-4-(trifluoromethyl)isoindolin-1-one]: 730 nM, 1.1x and 690 nM.
Take `Cn1cnnc1[C@H](F)C1(c2cccc(N3Cc4c(cc(CN5CC(C)(O)C5)cc4C(F)(F)F)C3=O)c2)CC1` (single isomer, unassigned) [Compound 30]: on c-Cbl, the IC50 was found to be 91 nM and the “(fold-selectivity)” value is recorded as 1.4x. At Cbl-b, this compound yielded an IC50 of 65 nM.
The matching figures for `Cn1cnnc1CC1(c2cc(OC3CCCC3)nc(N3Cc4c(cccc4C(F)(F)F)C3=O)c2)COC1` [Compound 381, 2-(6-(cyclopentyloxy)-4-(3-((4-methyl-4H-1,2,4-triazol-3-yl)methyl)oxetan-3-yl)pyridin-2-yl)-4-(trifluoromethyl)isoindolin-1-one]: 7300 nM, “(5.9x)” and 1100 nM.
Take `Cn1cnnc1C[C@]1(c2cccc(N3Cc4c(cc(CNC5(C)CCC5)cc4C(F)(F)F)C3=O)c2)C[C@H](C#N)C1` [Compound 467, (1r,3r)-3-((4-methyl-4H-1,2,4-triazol-3-yl)methyl)-3-(3-(6-(((1-methylcyclobutyl)amino)methyl)-1-oxo-4-(trifluoromethyl)isoindolin-2-yl)phenyl)cyclobutanecarbonitrile]: on c-Cbl, the IC50 came out at 11 nM and the “(fold-selectivity)” value was “(0.89x)”. Further, the IC50 on Cbl-b stood at 12 nM.
The matching figures for `Cn1cnnc1CC1(c2cc(NC34CCC(C3)C4)nc(N3Cc4c(cccc4C(F)(F)F)C3=O)c2)COC1` [Compound 493, 2-(6-(bicyclo[2.1.1]hexan-1-ylamino)-4-(3-((4-methyl-4H-1,2,4-triazol-3-yl)methyl)oxetan-3-yl)pyridin-2-yl)-4-(trifluoromethyl)isoindolin-1-one]: 4500 nM, “(6.9x)” and 630 nM.
Take `Cn1cnnc1C[C@]1(c2cccc(N3Cc4c(cccc4C(F)(F)F)C3=O)c2)C[C@@H](F)C1` [Compound 99, 2-(3-((1s,3r)-3-fluoro-1-((4-methyl-4H-1,2,4-triazol-3-yl)methyl)cyclobutyl)phenyl)-4-(trifluoromethyl)isoindolin-1-one]: the results for the IC50 at c-Cbl and against Cbl-b were 340 nM and 170 nM, respectively. Moreover, on c-Cbl, the “(fold-selectivity)” value worked out at 2.0x.
For `Cn1cnnc1CC1(c2cc(NC3C4CCC3C4)nc(N3Cc4c(cccc4C(F)(F)F)C3=O)c2)COC1` (stereo not drawn) [Compound 382, 2-(6-(bicyclo[2.1.1]hexan-5-ylamino)-4-(3-((4-methyl-4H-1,2,4-triazol-3-yl)methyl)oxetan-3-yl)pyridin-2-yl)-4-(trifluoromethyl)isoindolin-1-one], the figures for the IC50 at c-Cbl and on Cbl-b were 20000 nM and 820 nM, respectively. Also, at c-Cbl, the “(fold-selectivity)” value is “(24x)”.
The matching figures for `COCC1(F)CN(Cc2cc3c(c(C(F)(F)F)c2)CN(c2cccc(C4([C@H](F)c5nncn5C)COC4)c2)C3=O)C1` [Compound 136, (S)-2-(3-(3-(fluoro(4-methyl-4H-1,2,4-triazol-3-yl)methyl)oxetan-3-yl)phenyl)-6-((3-fluoro-3-(methoxymethyl)azetidin-1-yl)methyl)-4-(trifluoromethyl)isoindolin-1-one]: 560 nM, 280 nM and 2.0x.
For `COc1cccc2c1CN(c1cccc(C3([C@@H](F)c4nncn4C)COC3)c1)C2=O` [Compound 206, (R)-2-(3-(3-(fluoro(4-methyl-4H-1,2,4-triazol-3-yl)methyl)oxetan-3-yl)phenyl)-4-methoxyisoindolin-1-one], in that order: 2300 nM, 1500 nM and 1.5x.
The matching figures for `C#Cc1cccc2c1CN(c1cccc(C3([C@@H](F)c4nncn4C)COC3)c1)C2=O` [Compound 211, (R)-4-ethynyl-2-(3-(3-(fluoro(4-methyl-4H-1,2,4-triazol-3-yl)methyl)oxetan-3-yl)phenyl)isoindolin-1-one]: 1600 nM, 940 nM and 1.7x.
Turning to `CC(C)[C@H]1CN(C)CCN1Cc1cc2c(c(C(F)(F)F)c1)CN(c1cccc(C3([C@H](F)c4nc(F)cn4C)COC3)c1)C2=O` [Compound 270, 2-(3-(3-((S)-fluoro(4-fluoro-1-methyl-1H-imidazol-2-yl)methyl)oxetan-3-yl)phenyl)-6-(((S)-2-isopropyl-4-methylpiperazin-1-yl)methyl)-4-(trifluoromethyl)isoindolin-1-one], at c-Cbl, it took 350 nM to reach half-maximal inhibition (IC50) and the “(fold-selectivity)” value is given as “(2.6x)”. On Cbl-b, this compound showed an IC50 of 130 nM.

For the origin of these results see patent US20250230147A1, “LACTAMS AS CBL-B INHIBITORS” (Genentech, Inc., priority 2021, published 2025).
